Results published in patent US20050228046A1, “Alkylamine as an antimicrobial agent in ophthalmic compositions” (ADVANCED MEDICAL OPTICS, INC., priority 2004, published 2005).

How the values were obtained:
[1] = system: Candida albicans, ATCC 10231; experiment: Microbiology challenge test, log drop; format: cell-based
Experimental: (§1) The following is the procedure by which various antimicrobial agents and solutions are tested for their ability to reduce microbial loads over short periods of time, typically 24 hours and less. The procedure is a basic microbiology challenge test, which involves the inoculation of test product aliquots with a known number of viable cells of several test organisms, and assay for the survivors at various time intervals. The results are used to calculate log drops at soak times and construct kill-curves (graphs of survivors versus time) if desired.
(§2) Candida albicans, ATCC 10231, is one of five organisms specified per FDA and ISO/CLI tests for the testing of contact lens disinfectants (FDA Premarket Notification (510k) Guidance Document for Contact Lens Care Products, Appendix B, Apr. 1, 1997 and ISO/FDIS 14729: Ophthalmic optics-Contact lens care products-Microbiological requirements and test methods for products and regimens for hygienic management of contact lenses, January 2001). Contact lens disinfectants are also known as contact lens multi-purpose solutions when they are used for rinsing, cleaning, disinfection, storage and rewetting contact lenses. The five FDA/ISO specified test organisms are listed below: • Serratia marcescens, ATCC 13880 • Staphylococcus aureus, ATCC 6538 • Pseudomonas aeruginosa, ATCC 9027 • Candida albicans, ATCC 10231 • Fusarium solani, ATCC 36031
(§3) The specific test procedure for testing antimicrobial activity against the five FDA/ISO specified test organisms is as follows (C. albicans is provided as a specific example): Test samples are sterile-filtered through a 0.22 micron sterile filter into sterile plastic high density polyethylene bottles or plastic flasks. A 10-mL aliquot of test sample is aseptically transferred into a sterile polystyrene plastic test tube. Sterile saline (0.90 w/v % NaCl) with 0.05 w/v % Polysorbate 80 (SS+TWEEN) is transferred into a separate control tube. All samples and control are stored at 20-25° C. throughout the duration of the test.
(§4) Test cultures of Candida albicans, ATCC 10231 are prepared in the conventional manner. Candida albicans cultures are grown on agar slants from primary frozen, lyophilized or “Culti-loop®” cultures. Three mL of sterile 0.9% saline is used to gently dislodge culture growth from the agar surface. The resulting harvest is transferred to an appropriate screw cap test tube containing glass beads and vortexed for approximately one minute. The vortexed harvest is diluted as needed with sterile 0.9% saline to prepare the culture inoculum with a concentration of 1×10e8 CFU/mL. Fifty microliters of culture inoculum is added to 10.0 mL of each test sample and control, so that the final inoculum level is in the range of 1×10e5 to 1×10e6 CFU(colony forming units) per mL of Candida albicans, ATCC 10231. Each sample and control tube is vortexed briefly to disperse the inoculum. Contact time intervals for testing activity against Candida are typically 4 or 6 hours, to conform to the intended product label instructions for contact lens soak time.
(§5) Aerobic Plate Count Methods are performed in order to quantitate test samples for their levels of survivors. At appropriate assay times, 0.5 mL well-vortexed aliquots are removed from sample tubes and added to glass test tubes containing 4.5 mL Letheen Neutralizing Broth media (Berton, Dickinson and Company, Sparks, Md.). After a previously determined, validated neutralizing time period, these samples are diluted 10-fold through serial dilutions using glass test tubes containing 4.5 mL Letheen Neutralizing Broth media. Aliquots of 0.1 mL are removed from each dilution tube and spread-plate applied to agar plates containing Sabouraud Dextrose Agar (SAB)(Berton, Dickinson and Company, Sparks, Md.). 10^1 to 10^4 CFU/mL survivor levels are quantitated. […]

[2] = system: Fusarium solani, ATCC 36031; experiment: Microbiology challenge test, log drop; format: cell-based
Experimental: as §1, §2, §3, §4, §5

[3] = Contact lens uptake: content left in solution after shaking with lenses; format: physicochemical; details: Myristylamine with TPGS 20 fold; for remaining content left in solution, Acuvue / remaining content left in solution, Purevision: 15 ml solution, closed system shaken 6 days at room temperature; for remaining content left in solution, Acuvue: 2 Acuvue lenses; for remaining content left in solution, Purevision: 2 Purevision lenses; for remaining content left in solution, Without Lens: 15 ml system without lenses, shaken 6 days at room temperature
Experimental: The results in Table 9A show the remaining quaternary ammonium and tertiary amine content left in solution after a 15 ml-solution-2 lenses closed system has been shaken for 6 days at room temperature. […] The control which was run for this experiment, which includes the remaining ingredients in the solutions referenced in Table 9A are listed in Table 9B. As one of ordinary skill in the art would realize, the less quaternary ammonium or tertiary amine content remaining in solution after the shaking period, the higher the absorption by the lenses.

[4] = system: Pseudomonas aeruginosa, ATCC 9027; experiment: Microbiology challenge test, log drop; format: cell-based
Experimental: as §1, §2, §3, §4, §5

[5] = system: Serratia marcescens, ATCC 13880; experiment: Microbiology challenge test, log drop; format: cell-based
Experimental: as §1, §2, §3, §4, §5

[6] = system: Staphylococcus aureus, ATCC 6538; experiment: Microbiology challenge test, log drop; format: cell-based
Experimental: as §1, §2, §3, §4, §5

[7] = system: five FDA/ISO specified test organisms; experiment: Antimicrobial activity against the five-microbial panel, FDA/ISO disinfection criteria; format: cell-based; details: result in words
Experimental: The following is the procedure by which various antimicrobial agents and solutions are tested for their ability to reduce microbial loads over short periods of time, typically 24 hours and less. The procedure is a basic microbiology challenge test, which involves the inoculation of test product aliquots with a known number of viable cells of several test organisms, and assay for the survivors at various time intervals. The results are used to calculate log drops at soak times and construct kill-curves (graphs of survivors versus time) if desired. Candida albicans, ATCC 10231, is one of five organisms specified per FDA and ISO/CLI tests for the testing of contact lens disinfectants (FDA Premarket Notification (510k) Guidance Document for Contact Lens Care Products, Appendix B, Apr. 1, 1997 and ISO/FDIS 14729: Ophthalmic optics-Contact lens care products-Microbiological requirements and test methods for products and regimens for hygienic management of contact lenses, January 2001). Contact lens disinfectants are also known as contact lens multi-purpose solutions when they are used for rinsing, cleaning, disinfection, storage and rewetting contact lenses. The five FDA/ISO specified test organisms are listed below: • Serratia marcescens, ATCC 13880 • Staphylococcus aureus, ATCC 6538 • Pseudomonas aeruginosa, ATCC 9027 • Candida albicans, ATCC 10231 • Fusarium solani, ATCC 36031 Candida albicans is often the most resistant of the five organisms to commonly used cationic antimicrobial agents in contact lens multi-purpose solutions. Thus, achievement of adequate antimicrobial activity against Candida is often the most difficult task to pass a particular disinfection efficacy standard. FDA and ISO guidelines specify two disinfection efficacy standards, indicated in the table below: Stand Alone Disinfectant (Primary) Criteria: [table] The specific test procedure for testing antimicrobial activity against the five FDA/ISO specified test organisms is as follows (C. albicans is provided as a specific example): Test samples are sterile-filtered through a 0.22 micron sterile filter into sterile plastic high density polyethylene bottles or plastic flasks. A 10-mL aliquot of test sample is aseptically transferred into a sterile polystyrene plastic test tube. Sterile saline (0.90 w/v % NaCl) with 0.05 w/v % Polysorbate 80 (SS+TWEEN) is transferred into a separate control tube. All samples and control are stored at 20-25° C. throughout the duration of the test.

[8] = Cetylpyridinium Chloride 0.001 w/v %, TPGS 0, Tetronic 1307 0.05
[9] = Cetylpyridinium Chloride 0.001 w/v %, TPGS 0.025, Tetronic 1307 0.05
[10] = Table 8B: Cetylamine 0.0001 % w/w with PHMB 0.00002, Pluronic F87 0.05, pH 7.7
[11] = Table 8B: Cetylamine 0.0001 % w/w, PHMB 0.00, Pluronic F87 0.05, pH 7.7
[12] = Table 8B: Cetylamine 0.000125 % w/w, PHMB 0.00, Pluronic F87 0.05, pH 7.7
[13] = Table 8B: Cetylamine 0.0003 % w/w, PHMB 0.00, Pluronic F87 0.05, pH 7.7
[14] = Table 2B: Dodecylamine 0.0003 % w/w, Tetronic 1307 0.05, pH 7.8
[15] = Table 2B: Dodecylamine 0.0005 % w/w, Tetronic 1307 0.05, pH 7.8

Structure (SMILES): CCCCCCCCCCCCCCCC[n+]1ccccc1 [Cetylpyridinium Chloride, reference compound]
- Log Drop [1, 8]: 4.41
- Log Drop [1, 9]: 0.12
- Log Drop [2, 8]: >4.08
- Log Drop [2, 9]: 1.06
- remaining content left in solution, Acuvue [3]: 3.3 ppm
- remaining content left in solution, Purevision [3]: 1.3 ppm
- remaining content left in solution, Without Lens [3]: 42.7 ppm

Structure (SMILES): CCCCCCCCCCCCCCCCN [Cetylamine]
- Log Drop [1, 10]: 1.51
- Log Drop [1, 11]: 2.89
- Log Drop [1, 12]: 1.97
- Log Drop [1, 13]: 2.89
- Log Drop [2, 10]: 1.14
- Log Drop [2, 11]: 1.3
- Log Drop [2, 12]: 2.76
- Log Drop [2, 13]: 1.48
- Log Drop [4, 10]: 4.43
- Log Drop [4, 11]: 4.49
- Log Drop [4, 12]: 3.95
- Log Drop [4, 13]: 4.49
- Log Drop [5, 10]: 4.18
- Log Drop [5, 11]: 2.35
- Log Drop [5, 12]: 3.76
- Log Drop [5, 13]: 3.61
- Log Drop [6, 10]: 4.81
- Log Drop [6, 11]: 4.18
- Log Drop [6, 12]: 4.81
- Log Drop [6, 13]: 4.79

Structure (SMILES): CCCCCCCCCCCCN [Dodecylamine, reference compound]
- Log Drop [1, 14]: 0.91
- Log Drop [1, 15]: 1.77
- Log Drop [2, 14]: 0.09
- Log Drop [2, 15]: 0.16
- Log Drop [4, 14]: 1.4
- Log Drop [4, 15]: 1.36
- Log Drop [5, 14]: 0.46
- Log Drop [5, 15]: 0.46
- Log Drop [6, 14]: 0.34
- Log Drop [6, 15]: 0.12
- antimicrobial activity [7]: very weak antimicrobial activity
- antimicrobial activity ([7]; listed as dodecylamine): not qualified as a disinfectant for contact lens care
- remaining content left in solution, Acuvue [3]: 35.0 ppm
- remaining content left in solution, Purevision [3]: 14.1 ppm
- remaining content left in solution, Without Lens [3]: 44.4 ppm

Structure (SMILES): CCCCCCCCCCCCCC(=O)NCCCN(C)C [Myristylamidopropyl-dimethylamine]
- remaining content left in solution, Acuvue [3]: 18.2 ppm
- remaining content left in solution, Purevision [3]: 4.7 ppm
- remaining content left in solution, Without Lens [3]: 43.5 ppm
